Results published in a melting point compilation (Tetko et al.; mined from patent text by program, amines drawn as free bases though some values may be those of a salt).

Compound	melting point [°C]
CCOc1ccccc1-c1cc(NC(=O)C2CCN(C(C)C)CC2)ncn1	173 to 175
CCOC(=O)C1(NS(=O)(=O)c2ccc(F)cc2)CCCCC1	96 to 98
N#CCCNC(=O)c1cccc(-c2ccc3c(c2)C(NCc2ccc(Cl)cc2Cl)CC3)c1 (configuration not stated)	126 to 130
c1cc2c(cc(-c3nnn[nH]3)c3nnnn32)s1	267 to 269
O=C1NCN(c2ccccc2)C12CCN(CC1=Cc3cc(Cl)ccc3CC1)CC2	191 to 192
O=C1NC(=O)N(CCc2ccc(Cl)cc2)C1O (configuration not stated)	151 to 152
CCCc1nn(C)c(C(N)=O)c1NC(=O)c1sccc1OCC	103 to 104
CC(=O)Nc1cccc2c1C(=O)c1c-2n[nH]c1-c1ccccc1	> 300
CC(C)(C)OC(=O)C(C)(C)Oc1ccc2c(c1)Nc1ccccc1S2	138 to 140
CCOC(=O)C1Sc2ccccc2C1=O (configuration not stated)	138 to 140
COC(=O)C1CSC(c2cc3ccccc3[nH]2)=N1 (configuration not stated)	141 to 142
COC(=O)c1ccc2c3cccc4cccc(c5ccc(C(=O)N(C)c6cc(C(C)(C)C)ccc6C(C)(C)C)c1c25)c43	297 to 298
COC(=O)CCc1oc(C)nc1-c1ccc(Cl)cc1	74 to 75
COc1ccc(CN(CCN(C)CCCCCCN=C(NC#N)NCCSCc2csc(NC(=N)N)n2)c2ccccn2)cc1	52
COC(=O)c1ccc2c(c1)NC(=O)C(C)O2 (configuration not stated)	156 to 159
Nc1cccc(-c2cc(NC(=O)c3cccs3)nc(-c3ccccc3O)c2)c1	161 to 162
CCOC(=O)c1c(CN2C(=O)CN(C)C2=O)nc2sc3c(c2c1-c1ccc(OC)c(OC)c1)CCN(C(=O)c1ccccc1)C3	185 to 187
CC(OCCO)n1cc(F)c(=O)[nH]c1=O (configuration not stated)	118 to 120
CCOc1c(C(F)(F)F)ncn(-c2c(Cl)cc(C(F)(F)F)cc2[N+](=O)[O-])c1=O	97.5 to 100
O=[N+]([O-])c1c(OCc2ccccc2)ccnc1F	96 to 98
COc1ccc(C=CC(=O)c2ccc(O)c(CC(=O)O)c2)cc1OC	225
CN1CCc2c(c(Br)cc3nc(OCc4ccccc4)c(OCc4ccccc4)nc23)C1	147
CC(C)c1ccc(S(=O)(=O)n2c(Cc3ccc(C(=O)O)cc3)cc3cc(C(F)(F)F)ccc32)cc1	227
Clc1nc(N2CCCCC2)c2ncnc(Cl)c2n1	114 to 117
CC(C)=CCCC(C)=CCCC(C)=CC=CC(C)=CC(N)=O	63 to 65

Compound	melting point [°C]
OCCNC(c1ccccc1)(c1ccccc1)c1ccccc1	94 to 97
COC(=O)C1=C(C)NC2=C(C(=O)CN(CC(O)COc3cccc(C)c3C)C2)C1c1c(F)ccc(Cl)c1Cl (configuration not stated)	190 to 193
CCCc1c(OCCCc2ccc(O)c(O)c2)ccc(C(=O)O)c1O	194 to 195
C=C(C)C(CC=C(C)C)CC12CC(CC=C(C)C)C(C)(C)C(CC=C(C)C)(C(=O)C(C(=O)c3ccc(O)c(O)c3)=C1O)C2=O (configuration not stated)	126
O=c1c(O)c(-c2ccc3c(c2)OC(c2ccccc2)(c2ccccc2)O3)oc2cc(O)cc(O)c12	239 to 240
O=C(O)c1c[n+]([O-])cc2ccccc12	280 to 283
O=C1NCC(c2ccccc2)CCC1Br (configuration not stated)	218 to 220
O=C(C=Cc1ccncc1)c1ccc(F)cc1	157
Cc1cc(CNC(=O)c2ccnc(N3CCN(Cc4ccc(F)cc4)C3=O)c2)no1	153 to 155
O=c1[nH]c2ccc(S(=O)CCCl)cc2o1 (configuration not stated)	150 to 155
Cc1ccc(N2C(=O)C(O)=C(C(=O)c3ccc(OC(F)(F)F)cc3)C2c2ccc(Cn3ncnn3)cc2)nn1 (configuration not stated)	258
Cc1c(C(=O)O)cnn1-c1ccc(F)c(Cl)c1	187
CNC(=O)N(CCN)c1nc(-c2ccc(F)cc2C)c2ccc(=O)n(-c3c(F)cccc3F)c2n1	124 to 133
COC1c2ccccc2C(=O)N1CCN1CCC(Cc2c[nH]c3ccc(F)cc23)CC1 (racemic)	175
Cc1ccc(-n2nc(C(C)(C)C)cc2NC(=O)NCc2ccccc2Oc2cc(N3CCOCC3)ncn2)cc1	128
COc1cc2oc3ccc(C#N)cc3c2cc1F	206 to 208
O=c1ccc(-c2c(-c3ccccc3)nn3ccccc23)nn1CC1CCCCN1 (configuration not stated)	141 to 142
Cc1ccc(S(=O)(=O)N[C@@H](C)C(=O)N[C@@H](Cc2ccccc2)C(=O)O)cc1	105 to 108
CCCC(C)(C)c1nsc(N=CN(C)C)c1C#N	65 to 67
N#CC(N)C=Cc1ccccc1 (configuration not stated)	79
CN(SC1(C)CCCC1=O)C(=O)ON=C1SC(C)(C)C(=O)N1C (configuration not stated)	119 to 121
COC(=O)C1(C(=O)OC)CCC1(C(=O)OC)C(=O)OC	80.5 to 81
O=C1c2ccccc2C(=O)N1CC(=O)N(CC(=O)N1CCc2ccccc21)c1ccccc1	230
COc1ccc(NCCCCCNC(C)=O)c2c1C(=O)c1ccccc1C2=O	145 to 147
Cc1ccc2c3c(ccc2n1)OCC(CN1CC=C(c2cc4ccccc4s2)CC1)O3 (configuration not stated)	174 to 176

Compound	melting point [°C]
CC(=O)OC1CSC(Oc2ccc(-c3ccsc3)nc2)C(OC(C)=O)C1OC(C)=O (configuration not stated)	158
CCn1ncc2c(Cl)c(C(N)=O)cnc21	192 to 193
CC(=O)OC1C(OC(=O)c2ccccc2)C(COC(=O)c2ccccc2)OC1n1cc(F)c(=O)[nH]c1=O (configuration not stated)	96 to 98
CC1(CNC(=O)OCc2ccc(Cl)cc2)Cn2cc([N+](=O)[O-])nc2O1 (configuration not stated)	221 to 222
N#Cc1c(N)cccc1Sc1cccc(N)c1	99 to 100
CCCCCN(CCCCC)C(=O)C(CCC(=O)O)CS(=O)(=O)c1ccc(C(C)=O)cc1 (configuration not stated)	69 to 71
O=C(NC(=O)c1ccc(F)c(OC(F)F)c1F)NC1CC1	128 to 130
CC(=O)c1cc(-c2ccncc2)sc1Oc1cc(F)ccc1F	119 to 121
CC1(C)CC(O)CC(C)(C)N1OC(=NC1CCCCC1)NC1CCCCC1	157 to 161
Cc1ccc2c(c1)C(=O)C(CC=O)C2 (racemic)	53 to 54
CC(C)OC(=O)N1CCC(c2ccc3oc(-c4ccc(C(F)(F)F)cc4)nc3c2)CC1	145 to 148
COCCOC(=O)COc1cc(F)ccc1C(=O)NCc1cccc([N+](=O)[O-])c1	112 to 115
O=S(=O)(Nc1cccc2cc(C3=NCCS3)[nH]c12)c1cccs1	189 to 190
OCCn1cc(-c2ccc3nnn(Cc4c(F)ccc(F)c4Cl)c3n2)cn1	143 to 145
CC(=O)OCC(OC(C)=O)c1nc2c(C(F)(F)F)cccc2c(O)c1C(=O)Nc1nccs1 (configuration not stated)	270
O=C(OCc1ccccc1)N(CCNC(=O)C(F)(F)F)CCNC(=O)C(F)(F)F	131 to 132
FC(F)(F)c1cccnc1-n1c(/C=C/c2ccccc2)nc2ccccc21	156 to 157
CN1CCN(Cc2cc(NC(=O)Nc3ccc(Oc4cc(Cl)ncn4)cc3)cc(C(F)(F)F)c2)CC1	291 to 292
O=C(c1ccccc1)N1CCc2cc(Cl)ccc21	135 to 136
CC(O)c1cc2c(s1)C(=O)c1ccsc1C2=O (configuration not stated)	166 to 168
COCOc1cccc2c1CCC2=O	51 to 54
COC(=O)c1ccccc1S(=O)(=O)NC(=O)Nc1nc(C)cc(CO)n1	140 to 141
CSc1ccc(NC(=O)N(O)C(C)C)cc1	150
N#CC(N=Nc1cc(S(=O)(=O)O)ccc1OC(=O)c1ccccc1)=C(OC(=O)c1ccccc1)c1ccccc1	193 to 195
C[C@@H]1CCCN1CCCOc1ccc(-c2ccc(S(=O)(=O)Cc3ccccc3)nn2)cc1	136

Compound	melting point [°C]
CCCCOc1cc(OC)ccc1C(=O)c1cccc(C(=O)O)c1	112 to 115
Cc1c(-c2ccnc(Cl)n2)cccc1[N+](=O)[O-]	138 to 139
CC=Cc1c(-c2ccc(C(C)(C)C)cc2)[nH]c2nccnc12	207 to 208
COc1ccc(S(=O)(=O)n2c(=O)n(-c3cccc(Cl)c3)c3cc(Cl)ccc32)c(OC)c1	173
COc1cc(-c2nc(=O)c3ccccc3s2)ccn1	149 to 150
CCCc1c(C(=O)NCc2ccc3c(Br)c(OCC#N)ccc3c2)cnn1-c1ccccc1	175 to 176
Cc1cc(Nc2ccnc(Nc3ccc(S(=O)(=O)N(C)C4CCN(Cc5cn[nH]c5)CC4)cc3)n2)ccc1F	224
CCOC(=O)C1C(Cl)C(=O)N1c1ccc(OC)cc1 (configuration not stated)	99 to 100
Nc1nc2cccnc2n1Cc1ccco1	193
CCN(CC)C(=O)c1cc(-c2ccccc2)ccc1-c1ccccc1	128 to 130
O=S(c1ccccc1-c1ccccc1)C(F)(F)C(F)(F)C(F)(F)C(F)(F)C(F)(F)C(F)(F)C(F)(F)C(F)(F)F (configuration not stated)	62 to 63
COC(=O)C(=NOC(F)F)c1ccccc1COc1cc(C)ccc1C	61 to 65
O=C(O)CN1C(=O)[C@@H](N[C@@H](CCC2CCCCC2)C(=O)O)COc2ccccc21	202 to 205
N#Cc1ccc(/C=C/S(=O)(=O)CS(=O)(=O)/C=C/c2ccc(C#N)cc2F)c(F)c1	268 to 270
COC(=O)c1nn(S(=O)(=O)c2ccc(C)cc2)c2ccccc12	163 to 165
COc1cc2cc(CO)c(CO)c(-c3ccnc(C4C(=O)CCCC4=O)c3)c2cc1OC	> 220
O=C(O)c1cn(-c2ccc(F)c(O)c2)c2c(Cl)c(F)c(F)cc2c1=O	> 280
CCCOc1ccc(S(=O)(=O)N2CCC(C(=O)OCC)CC2)cc1-c1nc2cc(Cl)c([N+](=O)[O-])cc2c(=O)[nH]1	203 to 204
COC(=O)c1cc2nc(C)oc2cc1C(=O)OC	121 to 124
CCc1cc(CNc2nc3ccccc3o2)c(=O)[nH]c1C	211 to 213
COC(=O)c1ccc(-c2nnc(-c3ccc(C(F)(F)F)cc3)s2)cc1	218 to 219
N#CCCCCCC#Cc1nc(N)c2ncn(C3OC(CO)C(O)C3O)c2n1 (configuration not stated)	99 to 101
